Data: patent publication EP0636146B1, “TACHYKININ ANTAGONIST TRICYCLIC COMPOUNDS, PREPARATION OF SAME AND PHARMACEUTICAL COMPOSITIONS CONTAINING SUCH COMPOUNDS” (A. MENARINI INDUSTRIE FARMACEUTICHE RIUNITE S.R.L., priority 1992, dated 1997)

What was measured:
[1] = tested on: P substance receptor (receptor NK-1); test: inhibition of SP methyl ester-induced contraction of isolated guinea pig ileum; assay type: cell-based; design: dose or concentration left out as unconfirmed; conditions: SP methyl ester 10 nm
Description: The capacity of the products described herein to interact with the P substance receptor (receptor NK-1) was assessed through an in vitro test, where the biological response produced by tachyquinines and correlated peptides was exclusively determined by the P substance receptor. The test preparation consisted of isolated guinea pig ileum affected by a dose-dependent contraction brought about by tachyquinines (Lee et al., Schmied. Arch. Pharmacol., 318, 281-287, 1982). The determination of the activity of the products as per the present invention in the test preparation was based on the use of an SP methyl ester concentration (10 nm) causing a response equal to 45% of max. response (S. Dion et al., Life Sci., 41, 2269-2278, 1987). The products considered herein were added to the preparation in growing concentrations. Their activity was assessed as inhibition of response to SP with satisfactory results.

[2] = tested on: neuroquinine A receptor (receptor NK-2); test: inhibition of NKA-induced contraction of isolated rabbit pulmonary artery; assay type: cell-based; conditions: NKA 3 nM
Description: The capacity of the products described in the present invention to interact with the neuroquinine A receptor as agonists or antagonists was assessed using a preparation characterized by the fact that the biological response produced by tachyquinines and correlated peptides was exclusively determined by the neuroquinine A receptor (receptor NK-2). The said preparation consisted of isolated rabbit pulmonary artery affected by a dose-dependent contraction brought about by tachyquinines (Rovero et al., Neuropeptides, 13, 263-270, 1989). The determination of the peptide activity in the test preparation was based on the use of an NKA concentration (3 nM) causing a response equal to 45% of max. response. The peptides considered herein were added to the preparation in growing concentrations. Their activity was assessed as inhibition of response to NKA.

cyclo(MDWFL) [compound 1]
inhibition of response to SP methyl ester [1]: 100% | inhibition of response to neuroquinine A [2]: 100%
